Data reported in paper PMC7376443 (Bioorganic & medicinal chemistry letters, 2020).

Experiments:
Assay type in all cases: biochemical
[1] = molecular target: T1, ChTS-DHFR (thymidylate synthase-dihydrofolate reductase), TS activity (Cryptosporidium hominis, UniProt A0A0S4TER9); assay: radiolabeled CH2H4F to H2F turnover by HPLC, single concentration […]
[2] = molecular target: human TS (thymidylate synthase, hTS) (Homo sapiens, UniProt P04818); assay: TS activity assay, enzyme preincubated with compound without dUMP, […]
[3] = molecular target: T1, ChTS-DHFR (thymidylate synthase-dihydrofolate reductase), TS activity

Sequence of human TS (thymidylate synthase, hTS) (P04818 2-313): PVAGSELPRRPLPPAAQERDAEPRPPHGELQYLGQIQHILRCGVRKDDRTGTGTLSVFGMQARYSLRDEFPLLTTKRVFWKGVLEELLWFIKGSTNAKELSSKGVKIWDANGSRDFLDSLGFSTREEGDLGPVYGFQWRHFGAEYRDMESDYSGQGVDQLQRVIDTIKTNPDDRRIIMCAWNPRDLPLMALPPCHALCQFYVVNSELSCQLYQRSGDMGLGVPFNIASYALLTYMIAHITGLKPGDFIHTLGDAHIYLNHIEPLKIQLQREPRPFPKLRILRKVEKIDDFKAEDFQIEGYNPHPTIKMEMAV

Substance: CD 11057 [compound 7]
- % Inhibition of ChTS Activity at 500 μM [1]: 46.0 ± 0.8

Substance: HTS 00950 [compound 6]
- % inhibition at 500 uM [2]: ~ 50
- IC50 [3]: 172 ± 11 µM

Substance: HTS 03850 [compound 2]
- % Inhibition of ChTS Activity at 500 μM [1]: 76 ± 9

Substance: HTS 00967 [compound 10]
- % Inhibition of ChTS Activity at 500 μM [1]: 55 ± 1
